ChEMBL document CHEMBL1140693, “4,5-diarylisoxazole Hsp90 chaperone inhibitors: potential therapeutic agents for the treatment of cancer” (J Med Chem, 2008)

Legend:
Heat shock protein HSP90 = Heat shock protein HSP90 (Homo sapiens, UniProt P07900+P08238)
Description: Displacement of fluorescent labelled VER-00051001 from human Hsp90-beta by FP assay

HCT-116 [1] = assay: cells; settings: Homo sapiens, HCT-116, 24 h
Description: Growth inhibition of human HCT116 cells after 24 hrs by SRB assay

[2] = Growth inhibition of human U87MG cells by SRB assay; assay type: functional, U-87MG ATCC; settings: U-87 MG
SF-268 = assay: Growth inhibition of human SF268 cells by SRB assay; assay type: functional
[3] = Growth inhibition of human PC3M cells by SRB assay; assay type: functional; settings: PC-3M
[4] = AUClast in human HCT116 cells bearing NCr athymic mouse at 4 mg/kg, cassette dosing; assay type: ADME, organism-based, HCT-116; set-up: time 0 - last, dose 4 mg/kg; settings: in vivo
DU-145 = assay: Growth inhibition of human DU145 cells by SRB assay; assay type: functional
[5] = Tmax in human HCT116 cells bearing NCr athymic mouse at 4 mg/kg, cassette dosing; assay type: ADME, organism-based, HCT-116; set-up: dose 4 mg/kg; settings: in vivo
[6] = Cmax in human HCT116 cells bearing NCr athymic mouse at 4 mg/kg, cassette dosing; assay type: ADME, organism-based, HCT-116; set-up: dose 4 mg/kg; settings: in vivo
SK-MEL-28 = assay: Growth inhibition of human SKMel28 cells by SRB assay; assay type: functional
[7] = Apparent terminal-phase volume of distribution (Vz/F) in human HCT116 cells bearing NCr athymic mouse at 4 mg/kg, cassette dosing; settings: in vivo
[8] = Apparent clearance in human HCT116 cells bearing NCr athymic mouse at 4 mg/kg, cassette dosing; assay type: ADME, organism-based, HCT-116; set-up: dose 4 mg/kg; settings: in vivo
[9] = Terminal half life in human HCT116 cells bearing NCr athymic mouse at 4 mg/kg, cassette dosing; assay type: ADME, organism-based, HCT-116; set-up: dose 4 mg/kg; settings: in vivo, read-out: t1/2 lambda z (converted)
HCT-116 [10] = assay: Inhibition of tumor growth in human HCT116 cells bearing mouse assessed as tumor weight at 50 mg/kg, ip qd after 12 days relative to control; settings: HCT-116, ip, 288 h

Structure (SMILES) | IC50 (Heat shock protein HSP90) [nM] | GI50 (HCT-116 [1]) [nM] | also measured
CCNC(=O)c1[nH]nc(-c2cc(Cl)c(O)cc2O)c1-c1ccc(CN(CC)CC)cc1 | 146 | 315 | 
CCNC(=O)c1[nH]nc(-c2cc(Cl)c(O)cc2O)c1-c1cccc(CNCc2ccccc2C(F)(F)F)c1 | 231 | 3110 | 
CCNC(=O)c1noc(-c2cc(Cl)c(O)cc2O)c1-c1ccc(OC)cc1 |  | 120 | GI50 [2]: 28 nM; GI50 (SF-268): 34 nM; GI50 [3]: 220 nM; AUC(0-t) [4]: 1.73 µM·h; GI50 (DU-145): 230 nM; Tmax [5]: 1 h; Cmax [6]: 482 nM; GI50 (SK-MEL-28): 45 nM; Vz/F [7]: 0.432 L; CL/F [8]: 1.27 mL/min; half-life [9]: 3.9 h
CCNC(=O)c1noc(-c2cc(CC)c(O)cc2O)c1-c1ccc(CN2CCOCC2)cc1 | 29 | 25 | 
CCNC(=O)c1noc(-c2cc(Cl)c(O)cc2O)c1-c1ccc(CNCCS(C)(=O)=O)cc1 | 14 | 1980 | 
CCNC(=O)c1[nH]nc(-c2cc(Cl)c(O)cc2O)c1-c1cccc(CNCCOC)c1 | 728 | 12900 | 
CCNC(=O)c1[nH]nc(-c2cc(Cl)c(O)cc2O)c1-c1cccc(CN2CCC[C@H]2CO)c1 | 1660 | 11400 | 
CCNC(=O)c1noc(-c2cc(CCc3cccc(F)c3)c(O)cc2O)c1-c1ccc(CN2CCOCC2)cc1 | 26 | 58 | 
CCNC(=O)c1noc(-c2cc(Cl)c(O)cc2O)c1-c1ccc(CN2CCS(=O)(=O)CC2)cc1 | 21 | 470 | 
CCNC(=O)c1[nH]nc(-c2cc(Cl)c(O)cc2O)c1-c1cccc(CN2CCOCC2)c1 | 222 | 2690 | 
CCNC(=O)c1noc(-c2cc(CCc3ccc(F)cc3)c(O)cc2O)c1-c1ccc(CN2CCOCC2)cc1 | 20 | 39 | 
CCNC(=O)c1noc(-c2cc(Cl)c(O)cc2O)c1-c1ccc(CN2CCN(C)CC2)cc1 | 39 | 125 | 
CCNC(=O)c1noc(-c2cc(Cl)c(O)cc2O)c1-c1ccc(CN(C)C)cc1 | 18 | 69 | 
CCNC(=O)c1noc(-c2cc(Cl)c(O)cc2O)c1-c1ccc(CN2CCC(O)CC2)cc1 | 28 | 1290 | 
CCNC(=O)c1[nH]nc(-c2cc(Cl)c(O)cc2O)c1-c1ccc(CN(CCO)CCO)cc1 | 142 | 7800 | 
CCNC(=O)c1noc(-c2cc(-c3ccccc3)c(O)cc2O)c1-c1ccc(CN(CC)CC)cc1 | 74 | 91 | AUC(0-t) [4]: 1.25 µM·h; Tmax [5]: 4 h; Cmax [6]: 252 nM; Vz/F [7]: 0.736 L; CL/F [8]: 0.583 mL/min; half-life [9]: 14.6 h
CCNC(=O)c1noc(-c2cc(Cl)c(O)cc2O)c1-c1ccc(CN(CC)CC)cc1 | 64 | 56 | 
CCNC(=O)c1noc(-c2cc(-c3ccccc3C)c(O)cc2O)c1-c1ccc(CN2CCCCC2)cc1 | 14 | 114 | 
Oc1cc(O)c(-c2n[nH]cc2N2CCN(Cc3ccccc3)CC2)cc1Cl | 600 | 6500 | 
CCNC(=O)c1noc(-c2cc(-c3ccc(F)cc3)c(O)cc2O)c1-c1ccc(CN2CCCCC2)cc1 | 36 | 35 | 
CCNC(=O)c1noc(-c2cc(Cl)c(O)cc2O)c1-c1ccc(CN2CCCC2)cc1 | 39 | 118 | 
CCNC(=O)c1noc(-c2cc(C(C)(C)C)c(O)cc2O)c1-c1ccc(CN2CCCCC2)cc1 | 11 | 65 | 
CC(=O)c1ccc(CNC(=O)c2c[nH]nc2-c2cc(Cl)c(O)cc2O)cc1 | 258 | 11600 | 
CCNC(=O)c1noc(-c2cc(CCc3ccccc3)c(O)cc2O)c1-c1ccc(CN2CCOCC2)cc1 | 32 | 29 | 
CCNC(=O)c1[nH]nc(-c2cc(Cl)c(O)cc2O)c1-c1ccc(CNC(=O)C2CCCN(C)C2)cc1 (configuration not stated) | 115 | 3470 | 
CCNC(=O)c1[nH]nc(-c2cc(Cl)c(O)cc2O)c1-c1cccc(CN2CCN(C(C)=O)CC2)c1 | 1290 | 32700 | 

Structure (SMILES) | IC50 (Heat shock protein HSP90) [nM] | GI50 (HCT-116 [1]) [nM] | also measured
CCNC(=O)c1[nH]nc(-c2cc(Cl)c(O)cc2O)c1-c1ccc(CN2CCS(=O)(=O)CC2)cc1 | 27 | 826 | 
CCNC(=O)c1noc(-c2cc(C(C)C)c(O)cc2O)c1-c1ccc(CN(CC)CC)cc1 | 6 | 6 | 
CCNC(=O)c1noc(-c2cc(-c3ccccc3F)c(O)cc2O)c1-c1ccc(CN2CCOCC2)cc1 | 39 | 87 | 
CCNC(=O)c1noc(-c2cc(C(C)(C)C)c(O)cc2O)c1-c1ccc(CN2CCOCC2)cc1 | 8 | 70 | AUC(0-t) [4]: 0.751 µM·h; Tmax [5]: 1 h; Cmax [6]: 203 nM; Vz/F [7]: 0.809 L; CL/F [8]: 1.85 mL/min; half-life [9]: 5 h
CCNC(=O)c1[nH]nc(-c2cc(Cl)c(O)cc2O)c1-c1cccc(CN(C)CCO)c1 | 914 | 9240 | 
C=CCNC1=C2C[C@@H](C)C[C@H](OC)[C@H](O)[C@@H](C)/C=C(\C)[C@H](OC(N)=O)[C@@H](OC)/C=C\C=C(/C)C(=O)NC(=CC1=O)C2=O [TANESPIMYCIN] |  | 160 | 
CCNC(=O)c1noc(-c2cc(C(C)C)c(O)cc2O)c1-c1ccc(CN2CCOCC2)cc1 [LUMINESPIB] |  |  | GI50 [2]: 8 nM; GI50 (SF-268): 6 nM; GI50 [3]: 6 nM; AUC(0-t) [4]: 1.72 µM·h; GI50 (DU-145): 5 nM; Tmax [5]: 1 h; Cmax [6]: 385 nM; GI50 (SK-MEL-28): 5 nM; Vz/F [7]: 0.478 L; CL/F [8]: 0.583 mL/min; half-life [9]: 9.5 h; T/C at 50 mg/kg (HCT-116 [10]): 49.8%
CCNC(=O)c1noc(-c2cc(-c3ccccc3)c(O)cc2O)c1-c1ccc(CN2CCOCC2)cc1 | 22 | 152 | 
CCNC(=O)c1[nH]nc(-c2cc(Cl)c(O)cc2O)c1-c1ccc(CN2CCOCC2)cc1 | 37 | 290 | 
CCNC(=O)c1noc(-c2cc(CC)c(OC)cc2O)c1-c1ccc(CN2CCOCC2)cc1 | 15 | 80 | 
CCNC(=O)c1noc(-c2cc(-c3ccccc3)c(O)cc2O)c1-c1ccc(CN2CCCCC2)cc1 | 14 | 86 | AUC(0-t) [4]: 0.995 µM·h; Tmax [5]: 1 h; Cmax [6]: 237 nM; Vz/F [7]: 0.652 L; CL/F [8]: 1.03 mL/min; half-life [9]: 7.3 h
CCNC(=O)c1noc(-c2cc(CCc3ccc(F)cc3)c(O)cc2O)c1-c1ccc(CN2CCCCC2)cc1 | 26 | 29 | 
CCNC(=O)c1noc(-c2cc(Cl)c(O)cc2O)c1-c1cccc(N2CCOCC2)c1 | 127 | 634 | 
CCNC(=O)c1[nH]nc(-c2cc(Cl)c(O)cc2O)c1-c1ccc(CNC(=O)C[C@@H]2CCCN2)cc1 | 57 | 275 | 
CCNC(=O)c1[nH]nc(-c2cc(Cl)c(O)cc2O)c1-c1cccc(CNCCN2CCOCC2)c1 | 431 | 12500 | 
CCNC(=O)c1[nH]nc(-c2cc(Cl)c(O)cc2O)c1-c1cccc(CN2CCC(CO)CC2)c1 | 2630 | > 80000 | 
CCNC(=O)c1[nH]nc(-c2cc(Cl)c(O)cc2O)c1-c1ccc(CNCCS(C)(=O)=O)cc1 | 35 | 2160 | 
CCNC(=O)c1[nH]nc(-c2cc(Cl)c(O)cc2O)c1-c1cccc(CNCCN2CCCCC2)c1 | 1000 | 25100 | 
CCNC(=O)c1noc(-c2cc(Cl)c(O)cc2O)c1-c1ccc(CN2CCOCC2)cc1 |  | 83 | 
CCc1cc(-c2[nH]nc(C)c2-c2ccc3c(c2)OCCO3)c(O)cc1O |  | 5800 | 
CCNC(=O)c1noc(-c2cc(CC)c(OC)cc2OC)c1-c1ccc(CN2CCOCC2)cc1 | 1560 | 32000 | 
CCNC(=O)c1noc(-c2cc(CC)c(O)cc2O)c1-c1ccc(CN(CC)CC)cc1 | 13 | 41 | 
CCNC(=O)c1noc(-c2cc(CC)c(O)cc2OC)c1-c1ccc(CN2CCOCC2)cc1 | 540 | 2150 | 
CCNC(=O)c1noc(-c2cc(Cl)c(O)cc2O)c1-c1cccc(N2CCN(C)CC2)c1 | 343 | 2780 | 
CCNC(=O)c1noc(-c2cc(Cl)c(O)cc2O)c1-c1ccc(CN2CCCCC2)cc1 | 19 | 61 | 
CCNC(=O)c1n[nH]c(-c2cc(Cl)c(O)cc2O)c1-c1ccc(OC)cc1 |  |  | GI50 [2]: 1200 nM; GI50 (SF-268): 320 nM; GI50 [3]: 2200 nM; GI50 (DU-145): 1200 nM; GI50 (SK-MEL-28): 480 nM
